# Assay results: a melting point compilation (Tetko et al.)
row,Compound,melting point
1,O=C(O)/C=C/c1c[nH]c2ccccc12,184 to 187 °C
2,CCN(CC)c1ccc(C=O)c(O)c1,62 °C
3,CNC(C)C(O)c1ccc(O)cc1 (stereo not drawn),153 °C
4,Cc1c(C)c2c(c(C)c1O)CCC(C)(COc1ccc(CC3SC(=O)NC3=O)cc1)O2 (stereo not drawn),185 °C
5,N#Cc1cccc(CS(=O)(=O)Cl)c1,100 to 102 °C
6,CC(=O)N1CCC(c2c[nH]c3ccccc23)CC1,174 to 176 °C
7,Cc1ccc(N)c(Br)c1,26 °C
8,Cc1ccc(C(=O)CCCCl)cc1,31.5 °C
9,Cc1c(C)c(C)c(CCl)c(CCl)c1C,135 °C
10,CC(=O)Nc1cccc(C(C)=O)c1,127 °C
11,Cc1cc(C)c(C(=O)O)c(C)n1,130 to 160 °C
12,CCCCC=CCCCCCCCCOC(C)=O,1.3 °C
13,OC[C@H]1OC(Nc2ccccc2)C[C@@H]1O (stereo partly drawn),151 °C
14,Cc1ccc2c(c1)C(=O)C2,46 °C
15,N#Cc1c(C(F)(F)F)cc(-c2ccccc2)[nH]c1=O,301 to 303 °C
16,ClC1CCCCC1Cl (stereo not drawn),-1.5 °C
17,CC1(C)OC(=O)C(=NNc2ccc(C(=O)O)cc2)C(=O)O1,223 °C
18,NC(=O)CC[C@H](NC(=O)OCC1c2ccccc2-c2ccccc21)C(=O)O,218 to 223 °C
19,O=C1C(Cl)=C(Nc2ccccc2)C(=O)c2ccccc21,215 °C
20,CCCNC(C)C(=O)Nc1ccccc1C (stereo not drawn),37.5 °C
21,O=C(O)Cc1ccccc1C(=O)O,178 to 182 °C
22,C=CCOC1(C#Cc2ccccc2)Cc2ccccc21 (stereo not drawn),50 °C
23,Nc1ccc(C=Cc2nc3ccccc3[nH]2)cc1,225 °C

row,Compound,melting point
1,CCOC(=O)c1sc(N)nc1C,177 to 178 °C
2,O=C(O)c1cc2cnccc2nc1C(F)(F)F,233 to 235 °C
3,COC(=O)NCCc1ccccc1NC(C)=O,107 °C
4,Cc1nc(N)nc(NN)n1,250 °C
5,CC(=O)NCc1c(I)c(NC(C)=O)c(I)c(C(=O)O)c1I,255 °C
6,Cc1ccc(C(c2ccc(C)o2)c2ccccc2Br)o1,57 °C
7,CN(C(=O)C(Cl)Cl)c1ccc(O)cc1,175 °C
8,O=C(Cl)c1cccc2c1OCCO2,98 to 99 °C
9,CC1(C)C(=S)NC(c2ccccc2)N1O (stereo not drawn),193 to 195 °C
10,Cc1c(C)c(C)c(C#N)c(C)c1C,159 °C
11,N#C/C(=N\Nc1ccc(Br)cc1)c1nc2ccccc2s1,280 °C
12,N#CC(=Cc1ccccc1Cl)c1nc2ccccc2s1,139 °C
13,Cc1cc(C)c(CSCc2c(C)cc(C)cc2C)c(C)c1,145 to 146 °C
14,N#Cc1ccc(C[C@H](NC(=O)OCC2c3ccccc3-c3ccccc32)C(=O)O)cc1,189 °C
15,CS(=O)(=O)Nc1ccc(C#N)cc1,194 °C
16,Cc1cccc2c1CCCC2,-23 °C
17,COc1ccc(C(=O)C2=NOC3C(=O)N(c4cc(Cl)ccc4Cl)C(=O)C23)cc1 (stereo not drawn),147 °C
18,O=C(O)c1ccc(N2CCCC2)cc1,230 °C
19,CC(C)(C)OC(=O)NCc1ncccc1F,56 to 58 °C
20,COC(=O)c1scc(C#N)c1-n1cccc1,87 to 90 °C
21,O=[N+]([O-])c1cc(N(CCO)CCO)ccc1NCCO,95.5 °C
22,C=C(C)c1ccc(C)cc1,-20 °C
23,COC(=O)CC(=O)c1cccnc1,34 to 42 °C

row,Compound,melting point
1,O=C1CCCCCCCCCCCN1,152 °C
2,CN1N=C(C(F)(F)F)CC1=O,179 °C
3,CC(C)(C)OC(=O)N1CCN(c2ccc(I)cn2)CC1,102 to 105 °C
4,Sc1ccncc1,182 to 189 °C
5,Cc1onc(-c2ccccc2)c1CO,81 to 82 °C
6,COC1=C(OC)C(C(O)CBr)OC1=O (stereo not drawn),96 °C
7,N#CCc1ccc2ccccc2c1,78 to 88 °C
8,CCOC(=O)C1=NN(c2ccccc2)C(=O)C1CC1C(=O)N(c2ccccc2)N=C1C(=O)OCC (stereo not drawn),179 °C
9,CC(C)[C@H](N)P(=O)(O)O,270 °C
10,COC(=O)C1=C(C)NC(=O)NC1c1ccc2c(c1)OCO2 (stereo not drawn),239 to 241 °C
11,NCCNCCNCCNCCN,-30 °C
12,CCCCCCCC(=O)Oc1ccc(/N=N/c2ccc(CCCC)cc2)cc1,63 to 64.2 °C
13,O=C(O)C1c2ccccc2-c2ccccc21,229 °C
14,NNC(=S)Nc1cccc(F)c1,164 to 166 °C
15,N#CCC(=O)c1ccc(Cl)c(Cl)c1,116 °C
16,CC(C)C(C(=O)OC(C#N)c1cccc(Oc2ccccc2)c1)c1ccc(Cl)cc1 (stereo not drawn),60 °C
17,CC(=O)Oc1ccc(I)cc1,32 °C
18,CC(C)(C)OC(=O)Nc1ccccn1,93 °C
19,COc1ccccc1C(C)O (racemic),37 to 39 °C
20,Nc1ccccc1C(=NO)c1ccccc1,157 to 158 °C
21,CCCC(=O)c1ccccc1O,10 °C
22,CCOC(=O)c1ccncc1,23 °C
23,CC(=O)C1(O)CCC2C3CC(C)C4=CC(=O)C=CC4(C)C3(F)C(O)CC21C (stereo not drawn),297 °C

row,Compound,melting point
1,O=C1OC(c2ccccc2)=NC1=Cc1ccc(Cl)cc1,192 to 193 °C
2,COc1cc(N=C=O)cc(OC)c1OC,40 °C
3,O=C(c1cccs1)c1noc(-c2ccc(Cl)cc2)c1S(=O)(=O)c1ccccc1,125 °C
4,CC(=O)c1ccc(C2CCCCC2)cc1,68 °C
5,S=c1oc2ccccc2n1CSCCCS,188 °C
6,CNC(=O)N(C)c1nc2ccccc2s1,120 °C
7,O=C(CI)OC(=O)CI,43 to 49 °C
8,CC(C)(C)OC(=O)NCc1cccc(CO)c1,51 to 55 °C
9,COc1cccc(C)c1,-47 °C
10,CCC(=O)c1ccc(C(F)(F)F)c(F)c1,37 °C
11,COc1cc2nc(N3CCN(C(=O)c4ccco4)CC3)nc(N)c2cc1OC,285 °C
12,COc1c(F)cc(N)cc1Br,72 °C
13,CCCCCCCCCCCCCCCCOc1ccc(C(=O)O)cc1,132 °C
14,O=C(Cl)c1cc(Br)cc2c1OCC2,126 to 127 °C
15,C=C(C)CCCCCCCCCC,-31 °C
16,CCc1ccc(NC(N)=S)cc1,138 °C
17,CCC(=O)OC1CCC2C3CCC4CC(=O)C(C)CC4(C)C3CCC12C (stereo not drawn),128 °C
18,O=C(Cl)c1ccc(-c2ccco2)cc1,101 to 103 °C
19,Sc1ccccc1,-14.9 °C
20,CCOCCO,-70 °C
21,Cn1cncc1C=O,55 °C
22,FC(F)(F)c1cccc(-n2cc[nH]c2=S)c1,157 to 159 °C
23,C1CNCCCNCCNCCCNC1,98 to 102 °C

row,Compound,melting point
1,CCCCCCCCCCCCCCCCCC(=O)OC1CCC2(C)C(=CCC3C2CCC2(C)C(C(C)CCCC(C)C)CCC32)C1 (stereo not drawn),79 to 83 °C
2,NN=C(/C(=N/N)c1ccccc1)c1cccc2ccccc12,217 to 218 °C
3,COc1nsc(N)n1,172 to 173 °C
4,[O-][P+](c1ccccc1)(c1ccccc1)C1C=C(c2ccccc2)OC(c2ccccc2)=C1,176 °C
5,Nc1cc2ccccc2oc1=O,136 °C
6,Cc1cccc(C(N)=NO)c1,143 to 146 °C
7,O=C(O)C=Cc1cccc(C=CC(=O)O)c1,280 °C
8,COc1cc(CCl)cc(OC)c1,46 to 48 °C
9,Nc1nnc(Sc2ncccc2[N+](=O)[O-])s1,216 °C
10,C=C1N(C)c2ccccc2C1(C)C,-8 °C
11,Cc1c(Cl)ccc([N+](=O)[O-])c1Cl,54 °C
12,CCOC(=O)c1cnn(-c2ccc([N+](=O)[O-])cc2)c1N,203 to 204 °C
13,N#CC(c1ccc(Sc2ccccc2)nn1)c1c(Cl)cccc1Cl (stereo not drawn),190 °C
14,O=C(c1ccc([N+](=O)[O-])cc1)c1noc(-c2ccc([N+](=O)[O-])cc2)c1S(=O)(=O)c1ccccc1,133 °C
15,Cc1c(Cl)cccc1C(=O)O,164 °C
16,CNC(=O)CCl,46 °C
17,CC(=CC(=O)O)C(F)(F)F,28 to 30 °C
18,COCC(C)OC(C)=O (stereo not drawn),-87 °C
19,C#CC1(O)c2ccccc2-c2ccccc21,110 °C
20,NS(=O)(=O)c1cc(F)ccc1F,141 °C
21,COc1ccc(C(C#N)C(C)=O)c(Cl)c1 (stereo not drawn),79 °C
22,COC(=O)Cn1nnc(N2CCOCC2)n1,100 to 103 °C
23,O=c1[nH]nc2oc3ccccc3cc1-2,220 °C

row,Compound,melting point
1,COc1ccc(C(=O)c2nn3c(nc(=O)c4ccccc43)s2)cc1,179 °C
2,O=C(CCl)Oc1ccc([N+](=O)[O-])cc1,73 to 75 °C
3,COC(=O)c1cc(C=O)oc1C,83 °C
4,CC(=O)NCc1ccccc1C(c1ccc(C)o1)c1ccc(C)o1,65 °C
5,COP(=S)(OC)Oc1cc(Cl)c(Cl)cc1Cl,41 °C
6,NC1=C(C(=O)Nc2ccccc2)C(c2ccc(Br)cc2)C2Oc3ccccc3C2O1 (stereo not drawn),282 °C
7,Cc1cc(C)c(S(=O)(=O)NN)c(C)c1,114 °C
8,COc1ccc(C=CNNc2nc(C)cc(C)n2)cc1,179 to 182 °C
9,O=C(O)c1cccc2c1OCCCO2,68 to 70 °C
10,CC(C)(C)c1ccc(S)cc1,-11 °C
11,CCN(CC)CC(=O)Nc1sc2c(c1C#N)CCCC2,170 to 171 °C
12,OCC1(c2ccc(Cl)cc2)CC1,50 to 54 °C
13,NC(=O)c1cc(Br)cc(Br)c1,182 °C
14,CCC1(CC)C(=O)C=CNC1=O,90.7 °C
15,c1ccc(-c2nc(-c3ccccc3)nc(-c3ccccc3)n2)cc1,235 °C
16,CCCCCCCCCCCCCCCCCCCC1CCCCC1,45 °C
17,CS(=O)(=O)n1ccnc1,86 to 88 °C
18,O=C(NCCBr)c1cc([N+](=O)[O-])cc([N+](=O)[O-])c1,140 °C
